Key:
[1] = biological target: T1, Purified recombinant NBD1 (Homo sapiens, UniProt P13569); test: Aggregation analysis using differential static light scattering (DSLS): thermal stability of NBD1; type: binding; conditions: NBD1 0.2 mg/ml; Tagg of compound well minus average Tagg of DMSO control wells
T1 construct: Purified recombinant NBD1 was produced using previously described methods; made in house
Experimental: Purified recombinant NBD1 was produced using previously described methods (A. Schmidt, J. L. Mendoza, P. J. Thomas (2011) Biochemical and Biophysical Approaches to Probe CFTR Structure (365-376) M. D. Amaral, K. Kunzelmann (eds.), Cystic Fibrosis, Methods in Molecular Biology 741, Springer Science+Business Media). The effect of test compounds on thermal stability of NBD1 was evaluated by differential static light scattering (DSLS) using the Harbinger Stargazer-384 instrument (Epiphyte Three, Toronto, Canada). Test compounds were dissolved and diluted to desired concentrations in 100% DMSO. The compounds or DMSO controls (100 nL) were stamped into wells of a […] low volume optical plate (Corning Inc., Corning, NY) using the Echo 555 acoustic liquid handler (Labcyte Inc., San Jose, CA).
NBD1 protein was diluted to 0.2 mg/ml in S200 buffer (50 mM Tris-HCl, 150 mM NaCl, 5 mM MgCl2, 2 mM ATP, 2 mM DTT, pH7.6) containing 1% glycerol. 10 uL of protein solution was aliquoted into the 384-well plate harboring the test compounds and 10 uL mineral oil was overlaid onto the protein solution, using the epMotion robotic liquid handler (Eppendorf North America, Hauppauge, NY). After placing into the Stargazer instrument, the plate was heated at 1° C. per minute to 70° C. Images were captured from 25° C. to 70° C. every 0.5° C. At the end of the experiment run, instrument software integrated image files and analyzed data automatically. A […] regression curve was generated for each well, representing the increase in light scattering over time. A temperature of aggregation (Tagg) was calculated based on the inflection point of the curve. To better compare data across experiments the average Tagg for DMSO control wells was calculated and subtracted from values for wells containing compounds to obtain a “ΔTagg” value. These ΔTagg values reflect stabilizing efficacy of the compounds. As set forth in Table 2 below, an ΔTagg value less than or equal to 5° C. is marked “A”; a value above 5° C. and less than or equal to 10° C. is marked “B”; a value greater than 10° C. and less than or equal to 25° C. is marked “C”.

[2] = system: Primary human bronchial epithelial cells from a ΔF508 homozygous CF donor (CF-HBE cells); test: TECC24 recording of CFTR-mediated transepithelial chloride transport, AUC fold over benchmark VX-809 @10 μM; type: cell-based; conditions: 48 hours incubation, AUC of forskolin-stimulated IEQ
Experimental: The effects of a test agent on CFTR-mediated transepithelial chloride transport is measured using TECC24 recording analysis. Test agents are solubilized in DMSO. Solubilized test agents are mixed with incubation medium containing DMEM/F12, Ultroser G (0.5%; Crescent Chemical, catalog #67042), Hyclone Fetal Clone II (2%; GE Healthcare, catalog #SH30066.02), bovine brain extract (0.25%; Lonza, catalog #CC-4098), insulin ([…]), IL-13 (10 ng/mL), hydrocortisone (20 nM), transferrin ([…]), triiodothyronine (500 nM), ethanolamine (250 nM), epinephrine (1.5 μM), phosphoethanolamine (250 nM), and retinoic acid (10 nM). Primary human bronchial epithelial cells from a ΔF508 homozygous CF donor (CF-HBE cells; from University of North Carolina Cystic Fibrosis Tissue Procurement Center), grown on Transwell HTS 24-well cell culture inserts (Costar, catalog #3378), are exposed to test agents or controls dissolved in incubation medium. The CF-HBE cells are cultured at 36.5° C. for 48 hours before TECC24 recordings are performed in the presence or absence of test agent, a positive control or vehicle (DMSO).
Following incubation, the transwell cell culture inserts containing the test agent or control-treated CF-HBE cells are loaded onto a TECC24 apparatus (TECC v7 or MTECC v2; EP Design) to record the transepithelial voltage (VT) and resistance (TEER) using 4 AgCl electrodes per well configured in current-clamp mode. The apical and basolateral bath solutions both contain (in mM) 140 NaCl, 5 KCl, 2 CaCl2), 1 MgCl2, 10 Hepes, and 10 glucose (adjusted to pH 7.4 with NaOH). To inhibit basal Na+ absorption, the ENaC inhibitor benzamil (10 μM) is added to the bath. Then, the adenylate cyclase activator, forskolin (10 μM), is added to the bath to activate CFTR. The forskolin-stimulated Cl− transport is halted by addition of CFTR inhibitor-172 (20 μM) to the bath at the end of the experiment to confirm specificity. VT and TEER recordings are digitally acquired at routine intervals using TECC or MTECC software (EP Design). VT and TEER are transformed into equivalent transepithelial Cl− current (IEQ), and the Area Under the Curve (AUC) of the IEQ time course between forskolin and CFTR inhibitor-172 addition is generated using Excel (Microsoft). Efficacy is expressed as the ratio of the test agent AUC divided by vehicle AUC. EC50s based on AUC are generated using the non-linear regression log(agonist) vs. response function in Prism software (Graphpad) with HillSlope fixed=1.
If a test agent increases the AUC of the forskolin-stimulated IEQ relative to VX-809 in CF-HBE cells, and this increase is inhibited by CFTR inhibitor-172, then the test agent is considered a CFTR corrector. TECC assay efficacy is expressed as the ratio of the test agent AUC divided by VX-809 AUC. As set forth in Table 2 below, a TECC value less than 3 is marked “A”; a value between 3 and 6 is marked “B”; a value between 6 and 20 is marked “C”.

T1 sequence (P13569 423-646 limits assumed): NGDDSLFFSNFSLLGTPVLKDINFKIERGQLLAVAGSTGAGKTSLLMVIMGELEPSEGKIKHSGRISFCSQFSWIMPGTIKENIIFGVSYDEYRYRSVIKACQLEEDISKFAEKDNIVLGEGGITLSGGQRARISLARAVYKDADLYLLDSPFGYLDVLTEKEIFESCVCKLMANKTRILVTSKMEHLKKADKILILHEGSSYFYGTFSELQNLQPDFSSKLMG

SMILES	DSLS (ΔTagg) [1]	TECC (test agent AUC divided by VX-809 AUC) [2]
CN1CC(C)(C)COCC(C)(c2cccc(CCC(=O)O)c2)c2cnc([nH]2)-c2cc(ccc2F)Oc2c(F)cc3[nH]ccc3c2CCC1=O (single isomer, unassigned) [Compound 20B, 3-[3-(23,29-Difluoro-6,10,10,12-tetramethyl-13-oxo-8,25-dioxa-3,12,20,31-tetrazapentacyclo[24.3.1.12,5.016,24.017,21]hentriaconta-1(30),2,4,16,18,21,23,26,28-nonaen-6-yl)phenyl]propanoic acid]	A (an ΔTagg value less than or equal to 5 °C is marked “A”)	A (a TECC value less than 3 is marked “A”)
CN1CC(C)(C)COCC(C)(c2cccc(CCC(=O)O)c2)c2cnc([nH]2)-c2cc(ccc2F)Oc2c(F)cc3[nH]ccc3c2CCC1=O (single isomer, unassigned) [Compound 20C, 3-[3-(23,29-Difluoro-6,10,10,12-tetramethyl-13-oxo-8,25-dioxa-3,12,20,31-tetrazapentacyclo[24.3.1.12,5.016,24.017,21]hentriaconta-1(30),2,4,16,18,21,23,26,28-nonaen-6-yl)phenyl]propanoic acid]	C (a value greater than 10 °C and less than or equal to 25 °C is marked “C”)	C (a value between 6 and 20 is marked “C”)
CC1(C)CCCC(C)(c2cccc(CCC(=O)O)c2)c2cnc([nH]2)-c2cc(ccc2F)Oc2c(F)cc3[nH]ccc3c2CCC(=O)NC1 (single isomer, unassigned) [Compound 40A, 3-[3-(23,29-difluoro-6,10,10-trimethyl-13-oxo-25-oxa-3,12,20,31-tetrazapentacyclo-[24.3.1.12,5.016,24.017,21]hentriaconta-1(30),2,4,16,18,21,23,26,28-nonaen-6-yl)phenyl]propanoic acid]	A (an ΔTagg value less than or equal to 5 °C is marked “A”)	A (a TECC value less than 3 is marked “A”)
CC1(C)CCCC(C)(c2cccc(CCC(=O)O)c2)c2cnc([nH]2)-c2cc(ccc2F)Oc2c(F)cc3[nH]ccc3c2CCC(=O)NC1 (single isomer, unassigned) [Compound 40B, 3-[3-(23,29-difluoro-6,10,10-trimethyl-13-oxo-25-oxa-3,12,20,31-tetrazapentacyclo-[24.3.1.12,5.016,24.017,21]hentriaconta-1(30),2,4,16,18,21,23,26,28-nonaen-6-yl)phenyl]propanoic acid]	C (a value greater than 10 °C and less than or equal to 25 °C is marked “C”)	B (a value between 3 and 6 is marked “B”)
CC1(C)CCCCC(C)(c2cccc(CCC(=O)O)c2)c2cnc([nH]2)-c2cc(ccc2F)Oc2c(F)cc3[nH]ccc3c2CCC(=O)NC1 (single isomer, unassigned) [Compound 46A, 3-[3-(24,30-difluoro-6,11,11-trimethyl-14-oxo-26-oxa-3,13,21,32-tetrazapentacyclo[25.3.1.12,5.017,25.018,22]dotriaconta-1(30),2,4,17(25),18(22),19,23,27(31),28-nonaen-6-yl)phenyl]propanoic acid]	A (an ΔTagg value less than or equal to 5 °C is marked “A”)	A (a TECC value less than 3 is marked “A”)
CC1(C)CCCCC(C)(c2cccc(CCC(=O)O)c2)c2cnc([nH]2)-c2cc(ccc2F)Oc2c(F)cc3[nH]ccc3c2CCC(=O)NC1 (single isomer, unassigned) [Compound 46B, 3-[3-(24,30-difluoro-6,11,11-trimethyl-14-oxo-26-oxa-3,13,21,32-tetrazapentacyclo[25.3.1.12,5.017,25.018,22]dotriaconta-1(30),2,4,17(25),18(22),19,23,27(31),28-nonaen-6-yl)phenyl]propanoic acid]	C (a value greater than 10 °C and less than or equal to 25 °C is marked “C”)	A (a TECC value less than 3 is marked “A”)

Reference: patent US20250197420A1, “MACROCYCLIC COMPOUNDS, COMPOSITIONS, AND METHODS OF USING THEREOF” (Sionna Therapeutics Inc., priority 2022, published 2025)
